{"source": "paper PMC5074465", "about": "“Duloxetine Inhibits Microglial P2X4 Receptor Function and Alleviates Neuropathic Pain after Peripheral Nerve Injury” (PLoS ONE, 2016)", "key": {"[1]": {"target": "T1, human P2X4R (P2X4 receptor) (Homo sapiens, UniProt Q99571)", "T1 construct": "gene P2RX4", "T1 sequence (Q99571 1-388)": "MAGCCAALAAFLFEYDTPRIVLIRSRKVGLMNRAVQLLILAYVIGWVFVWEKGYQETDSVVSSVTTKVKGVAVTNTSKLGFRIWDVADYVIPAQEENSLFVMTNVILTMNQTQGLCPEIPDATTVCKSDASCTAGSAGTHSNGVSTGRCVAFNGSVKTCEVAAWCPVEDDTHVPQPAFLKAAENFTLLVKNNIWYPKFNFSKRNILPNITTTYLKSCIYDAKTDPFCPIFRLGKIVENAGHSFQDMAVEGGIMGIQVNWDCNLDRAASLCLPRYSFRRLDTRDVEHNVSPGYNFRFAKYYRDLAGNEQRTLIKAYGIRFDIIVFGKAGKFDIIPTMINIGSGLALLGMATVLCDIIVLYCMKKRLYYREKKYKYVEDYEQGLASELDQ", "assay": "cell-based"}, "rat P2X4R (rP2X4R)": {"target": "T2, rat P2X4R (rP2X4R) (Rattus norvegicus, UniProt P51577)", "T2 construct": "gene P2rx4; rP2X4R stably expressed in 1321N1 cells", "T2 sequence (P51577 1-388)": "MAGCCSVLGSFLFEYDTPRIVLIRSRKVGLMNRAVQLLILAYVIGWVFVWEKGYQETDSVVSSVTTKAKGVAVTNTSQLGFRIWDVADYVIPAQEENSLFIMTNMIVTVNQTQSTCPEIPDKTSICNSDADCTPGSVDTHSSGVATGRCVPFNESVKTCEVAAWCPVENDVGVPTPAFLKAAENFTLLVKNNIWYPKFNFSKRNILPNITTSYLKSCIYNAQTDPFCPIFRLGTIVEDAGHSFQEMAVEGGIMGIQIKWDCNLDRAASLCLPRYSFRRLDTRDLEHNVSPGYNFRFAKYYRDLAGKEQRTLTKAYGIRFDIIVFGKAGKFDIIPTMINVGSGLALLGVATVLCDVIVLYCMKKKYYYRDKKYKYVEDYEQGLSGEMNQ", "assay": "Fura-2 Ca2+ assay (FDSS […]EX), inhibition of […] ATP response, […] duloxetine", "type": "cell-based"}}, "data": [{"smiles": "CNCC[C@H](Oc1cccc2ccccc12)c1cccs1", "note": "[duloxetine]", "values": [{"measurement": "IC50", "setting": "[1]", "result": 1.59, "unit": "µM"}, {"measurement": "Fura-2 Ca2+ assay (FDSS 7000EX), inhibition of 10 μM ATP response, 3-30 μM dulox", "setting": "rat P2X4R (rP2X4R)", "result": "The inhibitory effect of duloxetine was concentration dependent in rP2X4R-1321N1 cells (Fig 1A)."}]}]}
